Laboratory results reported in patent US8163793B2, “Proline derivatives” (Hoffman-La Roche Inc., priority 2009, dated 2012).
Counter-ions that a name gives are not always drawn.

Assays:
Cat L = Cat L (UniProt P07711); assay: Cathepsin enzyme inhibition assay (fluorogenic peptide substrate Z-Val-Val-Arg-AMC), Cathepsin L; assay type: biochemical, human and mouse; details: enzyme 1 nM, substrate 20 μM, pH 6.5; read-out: CatL IC50
Summary of the method: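 Cathepsin L at 1 nM was mixed with compound, then started with 20 μM Z-Val-Val-Arg-AMC in pH 6.5 potassium phosphate with EDTA, Triton X-100 and 5 mM DTT. AMC fluorescence (ex 360/em 465 nm) was followed over 20 min. IC50 is given in μM.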

Cathepsin S = Cathepsin S (UniProt P25774); assay: Cathepsin enzyme inhibition assay (fluorogenic peptide substrate Z-Val-Val-Arg-AMC), Cathepsin S; assay type: biochemical, human and mouse; details: enzyme 1 nM, substrate 20 μM, pH 6.5; read-out: CatS IC50
Summary of the method: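 Human or mouse cathepsin S (1 nM) was run in 100 mM potassium phosphate pH 6.5 with 5 mM EDTA, 0.001% Triton X-100 and 5 mM DTT. The rise in AMC fluorescence from cleavage was measured, and IC50 values were calculated by standard methods and expressed in μM.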

| IC50 (Cat L) [nM] | IC50 (Cathepsin S) [nM] | Compound |
| --- | --- | --- |
| ≥ 25000 | 780 | COc1cccc(-n2nc(C)cc2N2C[C@H](S(=O)(=O)c3ccccc3C(F)(F)F)C[C@@H]2C(=O)NC2(C#N)CC2)c1 [Example 334, (2R,4R)-1-[2-(3-Methoxy-phenyl)-5-methyl-2H-pyrazol-3-yl]-4-(2-trifluoromethyl-benzenesulfonyl)-pyrrolidine-2-carboxylic acid (1-cyano-cyclopropyl)-amide] |
| 12600 | 0.3 | N#CC1(NC(=O)[C@@H]2C[C@@H](S(=O)(=O)c3ccccc3Cl)CN2C(=O)CC(F)(F)F)CC1 [Example 219, (2S,4R)-4-(2-Chloro-benzenesulfonyl)-1-(3,3,3-trifluoro-propionyl)-pyrrolidine-2-carboxylic Acid (1-cyano-cyclopropyl)-amide] |
| 130 | 0.16 | N#CC1(NC(=O)[C@@H]2C[C@@H](S(=O)(=O)c3ccc(N4CCC4)cc3Cl)CN2C(=O)C2(c3ccc(Cl)cc3)CC2)CC1 [Example 328, (2S,4R)-4-(4-Azetidin-1-yl-2-chloro-benzenesulfonyl)-1-[1-(4-chloro-phenyl)-cyclopropanecarbonyl]-pyrrolidine-2-carboxylic acid (1-cyano-cyclopropyl)-amide] |
| ≥ 25000 | 1 | N#CC1(NC(=O)[C@@H]2C[C@@H](S(=O)(=O)c3ccc(-n4ccnc4)cc3C(F)(F)F)CN2)CC1 [Example 20, (2S,4R)-4-(4-Imidazol-1-yl-2-trifluoromethyl-benzenesulfonyl)-pyrrolidine-2-carboxylic acid (1-cyano-cyclopropyl)-amide hydrochloride] |
| 267 | 0.21 | N#CC1(NC(=O)[C@@H]2C[C@@H](S(=O)(=O)c3ccc(F)cc3Cl)CN2C(=O)C2(c3ccc(Cl)nc3)CC2)CC1 [Example 368, (2S,4R)-4-(2-Chloro-4-fluoro-benzenesulfonyl)-1-[1-(6-chloro-pyridin-3-yl)-cyclopropanecarbonyl]-pyrrolidine-2-carboxylic acid (1-cyano-cyclopropyl)-amide] |
| ≥ 25000 | 2.3 | N#CC1(NC(=O)[C@@H]2C[C@@H](S(=O)(=O)c3ccc(-n4ccnc4-c4ccccc4)cc3C(F)(F)F)CN2)CC1 [Example 25, (2S,4R)-4-[4-(2-Phenyl-imidazol-1-yl)-2-trifluoromethyl-benzenesulfonyl]-pyrrolidine-2-carboxylic acid (1-cyano-cyclopropyl)-amide hydrochloride] |
| 27900 | 1.7 | CC(Oc1ccc(S(=O)(=O)[C@@H]2C[C@@H](C(=O)NC3(C#N)CC3)N(C=O)C2)c(Cl)c1)C(F)(F)F (stereo partly drawn) [Example 150, (2S,4R)-4-[2-Chloro-4-(2,2,2-trifluoro-1-methyl-ethoxy)-benzenesulfonyl]-1-formyl-pyrrolidine-2-carboxylic acid (1-cyano-cyclopropyl)-amide] |
| ≥ 25000 | 5.2 | N#CCNC(=O)[C@@H]1C[C@@H](S(=O)(=O)c2ccccc2)CN1C(=O)C1CCCCC1 [Example 53, (2S,4R)-4-Benzenesulfonyl-1-cyclohexanecarbonyl-pyrrolidine-2-carboxylic acid cyanomethyl-amide] |
| 28100 | 4.3 | CCN1CCN(c2ccc(S(=O)(=O)[C@@H]3C[C@@H](C(=O)NC4(C#N)CC4)N(C=O)C3)c(Cl)c2)CC1 [Example 143, (2S,4R)-4-[2-Chloro-4-(4-ethyl-piperazin-1-yl)-benzenesulfonyl]-1-formyl-pyrrolidine-2-carboxylic acid (1-cyano-cyclopropyl)-amide] |
| 1080 | 0.46 | Cc1cc(N2C[C@H](S(=O)(=O)c3ccc(N4CCN(C)CC4)cc3Cl)C[C@H]2C(=O)NC2(C#N)CC2)n(C2CCC2)n1 [Example 401, (2S,4R)-4-[2-Chloro-4-(4-methyl-piperazin-1-yl)-benzenesulfonyl]-1-(2-cyclobutyl-5-methyl-2H-pyrazol-3-yl)-pyrrolidine-2-carboxylic acid (1-cyano-cyclopropyl)-amide] |
| 25800 | 0.255 | Cn1cc(-c2ccc(S(=O)(=O)[C@@H]3C[C@@H](C(=O)NC4(C#N)CC4)N(C(=O)C4(C)CC4)C3)c(C(F)(F)F)c2)cn1 [Example 249, (2S,4R)-1-(1-Methyl-cyclopropanecarbonyl)-4-[4-(1-methyl-1H-pyrazol-4-yl)-2-trifluoromethyl-benzenesulfonyl]-pyrrolidine-2-carboxylic acid (1-cyano-cyclopropyl)-amide] |
| ≥ 25000 | 22.8 | Cc1cc(N2C[C@H](S(=O)(=O)c3ccccc3C(F)(F)F)C[C@H]2C(=O)NC2(C#N)CC2)n(-c2cccnn2)n1 [Example 317, (2S,4R)-1-(5-Methyl-2-pyridazin-3-yl-2H-pyrazol-3-yl)-4-(2-trifluoromethyl-benzenesulfonyl)-pyrrolidine-2-carboxylic acid (1-cyano-cyclopropyl)-amide] |
| 1580 | 0.22 | N#CC1(NC(=O)[C@@H]2C[C@@H](S(=O)(=O)c3ccc(N4CCN(C5CC5)CC4)cc3Cl)CN2C(=O)C2(C(F)(F)F)CC2)CC1 [Example 298, (2S,4R)-4-[2-Chloro-4-(4-cyclopropyl-piperazin-1-yl)-benzenesulfonyl]-1-(1-trifluoromethyl-cyclopropanecarbonyl)-pyrrolidine-2-carboxylic acid (1-cyano-cyclopropyl)-amide] |
| 260 | 0.06 | N#CC1(NC(=O)[C@@H]2C[C@@H](S(=O)(=O)c3ccc(-n4ccc5ncnc-5c4)cc3Cl)CN2C(=O)C2(c3ccc(Cl)cc3)CC2)CC1 [Example 350, (2S,4R)-4-(2-Chloro-4-imidazo[4,5-c]pyridin-5-yl-benzenesulfonyl)-1-[1-(4-chloro-phenyl)-cyclopropanecarbonyl]-pyrrolidine-2-carboxylic acid (1-cyano-cyclopropyl)-amide] |
| 318 | 0.6 | Cc1cc(N2C[C@H](S(=O)(=O)c3ccccc3Cl)C[C@H]2C(=O)NC2(C#N)CC2)n(C2CCCCC2)n1 [Example 477, (2S,4R)-4-(2-Chloro-benzenesulfonyl)-1-(2-cyclohexyl-5-methyl-2H-pyrazol-3-yl)-pyrrolidine-2-carboxylic acid (1-cyano-cyclopropyl)-amide] |
| ≥ 25000 | 3500 | CC(C)CS(=O)(=O)[C@H]1CN[C@H](C(=O)NC2(C#N)CC2)C1 [Example 114, (2S,4R)-4-(2-Methyl-propane-1-sulfonyl)-pyrrolidine-2-carboxylic acid (1-cyano-cyclopropyl)-amide Hydrochloride] |
| 8380 | 0.495 | CC(C)(C)OC(=O)N[C@H]1CC[C@H](CC(=O)N2C[C@H](S(=O)(=O)c3ccc(OCC(F)(F)F)cc3Cl)C[C@H]2C(=O)NC2(C#N)CC2)CC1 [Example 264, (4-{2-[(2S,4R)-4-[2-Chloro-4-(2,2,2-trifluoro-ethoxy)-benzenesulfonyl]-2-(1-cyano-cyclopropylcarbamoyl)-pyrrolidin-1-yl]-2-oxo-ethyl}-cyclohexyl)-carbamic Acid Tert-butyl ester] |
| 6000 | 2 | N#CC1(NC(=O)[C@@H]2C[C@@H](S(=O)(=O)c3ccc(N4CCCCC4)cc3Cl)CN2)CC1 [Example 127, (2S,4R)-4-(2-Chloro-4-piperidin-1-yl-benzenesulfonyl)-pyrrolidine-2-carboxylic acid (1-cyano-cyclopropyl)-amide] |
